This note sets out measurements from patent USRE39113E1 (priority 1998, dated 2006).

The subject of test [1] is hot-plate assay in mouses. The experiment in a line: hot-plate assay in mice. The settings on record: ip, hot plate 55° C., licking of the paws. The class given is in vivo, Swiss albino mice. As for the experimental part:
The analgesic activity of the products object of the invention have been studied in several assays using the Swiss albino mice as the experimental animal. The assay of contortions induced by phenylbenzoquinone, the hot-plate assay and the hot-point assay are now described. The examples that are presented by way of illustration describe some of the pharmacological assays and should not limit the scope of the invention in any way.
The hot-plate assay was carried out following the method described by M. Ocana et al. (Europ J. Pharmacol. 186: 377-378, 1990). The product under study was administered s.c. or i.p. and 30 minutes later the analgesic effect was registered. For this the animals were placed on a metallic surface kept at 50° C. or 55° C. and the time registered (latency) until the licked their hind legs and a jump. The analgesic activity was calculated at each dose, comparing the potency of the treated group with the control group. Using the results obtained the ED-50 was calculated.

The next test has as its system mouse's tail. As to the kind of experiment: animal or person. Particulars: sc. The class given is in vivo, Swiss albino mice.

With `Clc1ccc(C2=CCN(CCCCn3cc(Cl)cn3)CC2)cc1` [Example 47a], the “Δ Latency” value in test [1] (40 mg/kg) stood at 5 s.
On to `C1=C(c2ccccc2)CCN(CCCCn2cccc2)C1` [Example 51a], for which the ED50 in the test with mouse's tail was determined as 5 mg/kg.
As to `Brc1ccc(C2=CCN(CCCCn3cncn3)CC2)cc1` [Example 59a], the ED50 in the test on mouse's tail is 60 mg/kg.
In turn, `Clc1ccc(C2=CCN(CCCCn3ccnc3-c3ccccc3)CC2)cc1` [Example 63a] registered an ED50 in the test with mouse's tail of 70 mg/kg.
With `CC(C)=CCN1CCC2(C)c3cc(O)ccc3CC1C2C` (centres unmarked) [Pentazocine, reference compound], the “Δ Latency” value in test [1] (10 mg/kg) was 6 s.
